Laboratory results: PMC8213057, “Targeting ALK2: An Open Science Approach to Developing Therapeutics for the Treatment of Diffuse Intrinsic Pontine Glioma” (Journal of Medicinal Chemistry, 2020)

Legend:
CYP2C19 = CYP2C19 (Homo sapiens, UniProt P33261); conditions: read-out: CYP2C19 IC50; human liver microsomes
AKT3 = AKT3 (Homo sapiens, UniProt Q9Y243); conditions: 1 μM; Run 1, Run 2
CAMKK1 = CAMKK1 (Homo sapiens, UniProt Q8N5S9); conditions: 1 μM; Run 1, Run 2
GLK/MAP4K3 = target: T1, GLK/MAP4K3 (Homo sapiens, UniProt Q8IVH8); conditions: 1 μM; Run 1, Run 2
T1 sequence (Q8IVH8 1-894): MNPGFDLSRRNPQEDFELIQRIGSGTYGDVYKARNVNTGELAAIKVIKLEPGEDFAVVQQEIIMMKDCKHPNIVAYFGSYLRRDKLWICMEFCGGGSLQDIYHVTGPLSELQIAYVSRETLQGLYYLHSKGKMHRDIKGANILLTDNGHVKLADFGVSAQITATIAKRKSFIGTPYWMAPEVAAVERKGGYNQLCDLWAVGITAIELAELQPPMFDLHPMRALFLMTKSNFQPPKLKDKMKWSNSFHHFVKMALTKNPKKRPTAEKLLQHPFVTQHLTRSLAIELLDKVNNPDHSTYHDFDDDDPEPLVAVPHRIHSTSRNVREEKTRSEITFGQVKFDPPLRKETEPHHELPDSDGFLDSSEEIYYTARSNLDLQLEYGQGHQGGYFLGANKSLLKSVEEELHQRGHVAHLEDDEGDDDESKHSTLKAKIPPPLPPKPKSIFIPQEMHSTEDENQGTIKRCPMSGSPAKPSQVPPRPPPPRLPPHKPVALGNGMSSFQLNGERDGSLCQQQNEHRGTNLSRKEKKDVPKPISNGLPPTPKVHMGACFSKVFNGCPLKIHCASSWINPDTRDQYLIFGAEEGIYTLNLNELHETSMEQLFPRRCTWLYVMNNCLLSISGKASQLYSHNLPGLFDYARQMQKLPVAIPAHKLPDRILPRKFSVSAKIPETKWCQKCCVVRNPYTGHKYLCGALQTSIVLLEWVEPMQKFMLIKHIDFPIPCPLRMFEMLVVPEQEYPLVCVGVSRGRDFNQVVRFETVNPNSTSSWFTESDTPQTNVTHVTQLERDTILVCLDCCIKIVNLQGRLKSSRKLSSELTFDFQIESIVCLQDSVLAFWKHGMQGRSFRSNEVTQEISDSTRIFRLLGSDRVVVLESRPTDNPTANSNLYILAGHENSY

SRMS = SRMS (Homo sapiens, UniProt Q9H3Y6); conditions: 1 μM; Run 1, Run 2
STK32C/YANK3 = STK32C/YANK3 (Homo sapiens, UniProt Q86UX6); conditions: 1 μM; Run 1, Run 2
YES/YES1 = YES/YES1 (Homo sapiens, UniProt P07947); conditions: 1 μM; Run 1, Run 2
FAK/PTK2 = FAK/PTK2 (Homo sapiens, UniProt Q05397); test: biochemical; conditions: read-out: % enzyme activity, 1 μM; Run 1, Run 2
HIPK4 = target: T2, HIPK4 (Homo sapiens, UniProt Q8NE63); test: biochemical; conditions: read-out: % enzyme activity, 1 μM; Run 1, Run 2
T2 sequence (Q8NE63 1-616): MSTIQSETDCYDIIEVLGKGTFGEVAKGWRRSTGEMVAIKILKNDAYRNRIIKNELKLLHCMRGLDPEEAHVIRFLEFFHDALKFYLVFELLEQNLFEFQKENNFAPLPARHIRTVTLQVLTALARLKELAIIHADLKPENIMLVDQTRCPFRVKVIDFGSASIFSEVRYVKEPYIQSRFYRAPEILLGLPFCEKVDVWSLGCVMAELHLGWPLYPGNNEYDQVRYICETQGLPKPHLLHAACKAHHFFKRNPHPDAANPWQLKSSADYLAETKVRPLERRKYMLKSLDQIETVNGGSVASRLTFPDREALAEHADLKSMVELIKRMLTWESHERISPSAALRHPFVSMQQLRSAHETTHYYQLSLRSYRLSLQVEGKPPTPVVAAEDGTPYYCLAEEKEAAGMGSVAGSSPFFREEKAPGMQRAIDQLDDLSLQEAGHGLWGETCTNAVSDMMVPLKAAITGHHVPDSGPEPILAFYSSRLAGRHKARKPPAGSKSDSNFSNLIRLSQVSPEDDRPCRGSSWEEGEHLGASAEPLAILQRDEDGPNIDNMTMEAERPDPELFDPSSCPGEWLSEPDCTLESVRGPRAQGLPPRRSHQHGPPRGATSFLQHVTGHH

MNK1 = MNK1 (Homo sapiens, UniProt Q9BUB5); test: biochemical; conditions: read-out: % enzyme activity, 1 μM; Run 1, Run 2
Chain of MNK1 (Q9BUB5 whole entry): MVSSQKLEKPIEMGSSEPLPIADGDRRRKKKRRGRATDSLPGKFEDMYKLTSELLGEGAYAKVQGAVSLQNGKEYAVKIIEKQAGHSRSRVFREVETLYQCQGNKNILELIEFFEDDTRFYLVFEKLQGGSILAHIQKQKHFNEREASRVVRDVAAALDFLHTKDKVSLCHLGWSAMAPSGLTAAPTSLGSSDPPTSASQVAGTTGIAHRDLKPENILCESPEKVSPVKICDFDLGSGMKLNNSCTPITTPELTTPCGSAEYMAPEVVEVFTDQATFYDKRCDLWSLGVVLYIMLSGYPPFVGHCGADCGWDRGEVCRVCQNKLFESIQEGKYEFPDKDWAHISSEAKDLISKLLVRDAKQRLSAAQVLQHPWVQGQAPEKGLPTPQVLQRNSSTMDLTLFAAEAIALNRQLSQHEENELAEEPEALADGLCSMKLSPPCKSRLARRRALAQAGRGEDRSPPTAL

Chain of CAMKK1 (Q8N5S9 whole entry): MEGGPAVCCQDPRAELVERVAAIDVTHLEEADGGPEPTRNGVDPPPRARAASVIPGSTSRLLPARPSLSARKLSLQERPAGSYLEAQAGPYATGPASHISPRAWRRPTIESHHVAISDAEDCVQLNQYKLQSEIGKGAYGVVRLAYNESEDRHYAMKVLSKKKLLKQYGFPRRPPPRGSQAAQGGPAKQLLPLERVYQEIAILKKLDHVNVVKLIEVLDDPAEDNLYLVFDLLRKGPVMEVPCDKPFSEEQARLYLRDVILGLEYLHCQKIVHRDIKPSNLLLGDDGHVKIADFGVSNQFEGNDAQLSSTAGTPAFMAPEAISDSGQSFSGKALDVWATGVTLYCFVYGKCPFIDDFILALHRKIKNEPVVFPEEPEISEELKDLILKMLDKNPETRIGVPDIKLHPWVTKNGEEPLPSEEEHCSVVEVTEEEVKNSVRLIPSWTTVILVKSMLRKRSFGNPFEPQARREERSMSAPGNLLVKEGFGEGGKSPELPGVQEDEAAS
Chain of SRMS (Q9H3Y6 whole entry): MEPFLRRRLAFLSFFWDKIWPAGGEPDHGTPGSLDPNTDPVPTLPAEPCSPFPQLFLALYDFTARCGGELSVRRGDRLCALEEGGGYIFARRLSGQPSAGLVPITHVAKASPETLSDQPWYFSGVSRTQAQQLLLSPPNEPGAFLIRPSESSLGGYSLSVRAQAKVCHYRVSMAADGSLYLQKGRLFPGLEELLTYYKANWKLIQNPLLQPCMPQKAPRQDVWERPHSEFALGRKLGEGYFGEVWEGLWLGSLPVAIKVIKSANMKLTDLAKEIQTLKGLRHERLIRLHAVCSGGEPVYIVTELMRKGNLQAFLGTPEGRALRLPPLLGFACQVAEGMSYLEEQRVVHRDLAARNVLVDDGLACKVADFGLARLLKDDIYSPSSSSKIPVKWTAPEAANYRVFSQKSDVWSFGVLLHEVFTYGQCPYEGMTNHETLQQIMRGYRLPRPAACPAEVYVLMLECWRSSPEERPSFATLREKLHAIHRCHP
Chain of CYP2C19 (P33261 whole entry): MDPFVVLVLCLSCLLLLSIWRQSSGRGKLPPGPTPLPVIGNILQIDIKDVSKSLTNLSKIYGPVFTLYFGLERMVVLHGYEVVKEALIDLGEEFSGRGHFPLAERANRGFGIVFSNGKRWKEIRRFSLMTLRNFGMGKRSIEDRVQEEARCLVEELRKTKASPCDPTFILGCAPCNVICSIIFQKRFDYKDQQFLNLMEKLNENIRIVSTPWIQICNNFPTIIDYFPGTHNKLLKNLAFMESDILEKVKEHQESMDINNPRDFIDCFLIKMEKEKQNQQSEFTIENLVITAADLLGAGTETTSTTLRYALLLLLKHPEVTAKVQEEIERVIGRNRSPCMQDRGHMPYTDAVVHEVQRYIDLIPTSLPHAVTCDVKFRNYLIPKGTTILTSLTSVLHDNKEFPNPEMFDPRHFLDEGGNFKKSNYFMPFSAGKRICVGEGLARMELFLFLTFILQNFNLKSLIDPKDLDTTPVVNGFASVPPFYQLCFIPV
Chain of YES/YES1 (P07947 whole entry): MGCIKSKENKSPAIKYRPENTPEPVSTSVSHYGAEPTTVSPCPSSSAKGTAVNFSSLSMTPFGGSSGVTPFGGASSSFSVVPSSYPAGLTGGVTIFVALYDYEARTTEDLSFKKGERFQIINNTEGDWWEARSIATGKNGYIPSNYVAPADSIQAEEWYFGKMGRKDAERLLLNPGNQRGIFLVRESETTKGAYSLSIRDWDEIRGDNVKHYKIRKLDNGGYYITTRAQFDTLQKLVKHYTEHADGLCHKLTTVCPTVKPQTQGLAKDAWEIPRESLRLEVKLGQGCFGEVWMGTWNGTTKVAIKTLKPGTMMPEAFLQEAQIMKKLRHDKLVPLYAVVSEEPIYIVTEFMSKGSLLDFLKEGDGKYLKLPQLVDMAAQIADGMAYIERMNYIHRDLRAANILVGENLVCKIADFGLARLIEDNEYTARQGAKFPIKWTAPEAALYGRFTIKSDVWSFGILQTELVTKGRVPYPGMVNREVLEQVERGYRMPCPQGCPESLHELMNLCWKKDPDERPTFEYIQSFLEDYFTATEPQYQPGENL
Chain of STK32C/YANK3 (Q86UX6 whole entry): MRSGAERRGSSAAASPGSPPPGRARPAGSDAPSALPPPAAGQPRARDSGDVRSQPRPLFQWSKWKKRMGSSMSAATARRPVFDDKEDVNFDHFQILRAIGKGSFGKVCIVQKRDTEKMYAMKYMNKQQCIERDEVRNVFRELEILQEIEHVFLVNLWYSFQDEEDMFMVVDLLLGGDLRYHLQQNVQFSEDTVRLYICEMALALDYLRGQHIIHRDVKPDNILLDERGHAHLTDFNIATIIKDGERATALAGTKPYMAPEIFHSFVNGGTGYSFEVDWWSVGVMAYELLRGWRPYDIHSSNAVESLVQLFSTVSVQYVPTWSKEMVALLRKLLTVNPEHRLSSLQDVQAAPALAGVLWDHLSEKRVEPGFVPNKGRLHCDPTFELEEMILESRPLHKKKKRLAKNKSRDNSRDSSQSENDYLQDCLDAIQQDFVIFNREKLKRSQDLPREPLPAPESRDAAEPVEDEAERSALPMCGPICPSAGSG
Chain of AKT3 (Q9Y243 whole entry): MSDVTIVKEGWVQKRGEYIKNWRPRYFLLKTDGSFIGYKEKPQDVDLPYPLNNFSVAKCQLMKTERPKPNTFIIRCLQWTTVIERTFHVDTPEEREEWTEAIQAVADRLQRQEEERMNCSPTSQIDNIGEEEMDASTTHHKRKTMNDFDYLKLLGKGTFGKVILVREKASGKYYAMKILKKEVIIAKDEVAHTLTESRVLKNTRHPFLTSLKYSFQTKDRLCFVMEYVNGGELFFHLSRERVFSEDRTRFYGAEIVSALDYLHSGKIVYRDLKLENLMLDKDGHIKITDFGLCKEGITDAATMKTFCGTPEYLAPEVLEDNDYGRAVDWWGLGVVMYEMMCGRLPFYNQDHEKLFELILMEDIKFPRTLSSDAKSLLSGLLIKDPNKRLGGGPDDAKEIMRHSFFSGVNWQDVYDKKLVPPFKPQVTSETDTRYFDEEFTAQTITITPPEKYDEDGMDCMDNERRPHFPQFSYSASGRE
Chain of FAK/PTK2 (Q05397 whole entry): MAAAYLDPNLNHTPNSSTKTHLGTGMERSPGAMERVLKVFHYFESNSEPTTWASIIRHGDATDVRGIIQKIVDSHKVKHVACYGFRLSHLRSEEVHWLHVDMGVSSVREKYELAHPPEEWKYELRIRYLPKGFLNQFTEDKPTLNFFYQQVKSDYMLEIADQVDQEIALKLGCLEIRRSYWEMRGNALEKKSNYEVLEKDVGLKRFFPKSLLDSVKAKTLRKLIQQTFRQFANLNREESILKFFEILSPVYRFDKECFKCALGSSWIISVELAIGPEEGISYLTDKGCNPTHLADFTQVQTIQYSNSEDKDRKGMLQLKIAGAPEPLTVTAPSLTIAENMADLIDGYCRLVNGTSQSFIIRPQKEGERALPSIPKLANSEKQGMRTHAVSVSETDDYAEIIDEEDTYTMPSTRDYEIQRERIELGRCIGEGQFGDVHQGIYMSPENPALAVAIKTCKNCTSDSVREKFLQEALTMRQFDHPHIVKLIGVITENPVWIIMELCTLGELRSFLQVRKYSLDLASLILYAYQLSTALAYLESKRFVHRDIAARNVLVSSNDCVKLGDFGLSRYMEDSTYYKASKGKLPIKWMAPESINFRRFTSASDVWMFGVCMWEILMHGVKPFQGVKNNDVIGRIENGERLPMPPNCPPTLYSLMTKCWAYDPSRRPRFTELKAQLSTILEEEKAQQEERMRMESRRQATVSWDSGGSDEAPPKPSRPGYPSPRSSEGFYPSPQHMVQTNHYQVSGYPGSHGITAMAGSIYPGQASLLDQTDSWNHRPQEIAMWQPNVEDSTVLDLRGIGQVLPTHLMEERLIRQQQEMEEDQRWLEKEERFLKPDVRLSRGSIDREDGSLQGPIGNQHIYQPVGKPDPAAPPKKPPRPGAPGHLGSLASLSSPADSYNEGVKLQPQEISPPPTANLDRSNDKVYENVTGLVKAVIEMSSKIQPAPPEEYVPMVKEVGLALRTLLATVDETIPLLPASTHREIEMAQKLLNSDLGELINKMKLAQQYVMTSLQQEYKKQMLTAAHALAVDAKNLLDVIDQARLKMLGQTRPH

**Q.** For COc1cc(-c2cncc(-c3ccc(N4CCN(C)CC4)cc3)c2C)cc(F)c1C(N)=O [Compound 26a, 2-Fluoro-6-methoxy-4-(4-methyl-5-(4-(4-methylpiperazin-1-yl)phenyl)pyridin-3-yl)benzamide], which IC50 (CYP2C19) is on record?
**A.** > 50 µM

**Q.** What about the “% enzyme activity” value (AKT3) of the same molecule?
**A.** 94.73%

**Q.** What about the “% enzyme activity” value (CAMKK1) of the same molecule?
**A.** 92.05%

**Q.** And the “% enzyme activity” value (GLK/MAP4K3)?
**A.** 88.16%

**Q.** What about the “% enzyme activity” value (SRMS) of the same molecule?
**A.** 95.09%

**Q.** And the “% enzyme activity” value (STK32C/YANK3)?
**A.** 85.01%

**Q.** And the “% enzyme activity” value (YES/YES1)?
**A.** 104.56%

**Q.** And the remaining activity at 1 µM (FAK/PTK2)?
**A.** 94%

**Q.** And the remaining activity at 1 µM (HIPK4)?
**A.** 104%

**Q.** And the remaining activity at 1 µM (MNK1)?
**A.** 51.1%

**Q.** COc1cc(-c2cncc(-c3ccc(N4C[C@@H](C)N(C)[C@@H](C)C4)cc3)c2C)cc(F)c1C(N)=O [Compound 26c, 2-Fluoro-6-methoxy-4-(4-methyl-5-(4-((3R,5S)-3,4,5-trimethylpiperazin-1-yl)phenyl)pyridin-3-yl)benzamide] was tested. Which IC50 (CYP2C19) did it give?
**A.** > 50 µM

**Q.** What about the “% enzyme activity” value (AKT3) of the same molecule?
**A.** 98.56%

**Q.** And the “% enzyme activity” value (CAMKK1)?
**A.** 93.52%

**Q.** And the “% enzyme activity” value (GLK/MAP4K3)?
**A.** 88.71%

**Q.** What about the “% enzyme activity” value (SRMS) of the same molecule?
**A.** 95.91%

**Q.** What about the “% enzyme activity” value (STK32C/YANK3) of the same molecule?
**A.** 91.96%

**Q.** What about the “% enzyme activity” value (YES/YES1) of the same molecule?
**A.** 108.87%

**Q.** What about the remaining activity at 1 µM (FAK/PTK2) of the same molecule?
**A.** 95.4%

**Q.** And the remaining activity at 1 µM (HIPK4)?
**A.** 101%

**Q.** And the remaining activity at 1 µM (MNK1)?
**A.** 71.4%
